In patent US12178830B2, “Compositions and methods for adoptive cell therapy for cancer” (MEMORIAL SLOAN KETTERING CANCER CENTER, priority 2017, dated 2024):
pIC50: −log10 of the molar value.

How the values were obtained:
[1] = biological target: T1, endogenous glutamate carboxypeptidase expressed in human prostate cells (Homo sapiens, UniProt Q04609); assay: Cell Titer-Glo viability of LNCap cells with AMS-glut prodrug (specificity for CPG2); assay type: cell-based
T1 construct: the endogenous glutamate carboxypeptidase expressed in human prostate cells; endogenous in cells; host or cells: LNCap cells
Description: This prodrug/drug combination was chosen for further development of the SEAKER systems.

Jurkat (T cell) = assay: CellTitre Glo in vitro cytotoxicity, Jurkat; assay type: cell-based, human
SET2 cells = assay: SET2 viability with prodrug plus recombinant enzyme or enzyme-containing supernatant; assay type: cell-based; conditions: supernatant from CPG2-secreting HEK293t cells; control media did not
Protocol: Recombinant CPG2 protein was initially synthesized, purified (FIGS. 18A and 18B), and incubated with increasing concentrations of prodrug in a glutamate release assay (FIG. 17C). Mass spectrometry was used to determine that the glutamate moiety was released from all of the glutamate prodrugs. The in vitro cytotoxicity of the prodrugs (FIG. 17B) were tested against the myeloid leukemia cell line SET2 using a CellTitre Glo® assay (Promega, Madison, WI).
SET2 cells were exposed to increasing concentrations of AMS (square) or glut-AMS with media alone (− control, triangle) or supernatant from CPG2-secreting HEK293t cells (circle). Cell viability was measured by CellTitre-Glo® luminescence assay.
Thus, antigen-dependent expansion of SEAKER T cells results in increased output of enzyme into the extracellular milieu.
To determine to respective enzyme output of the Beta-lactamase constructs relative to the previous CPG2 constructs, a quantitative sandwich ELISA was used to determine the concentration (ng/mL) of purified recombinant CPG2, and a quantitative nitrocefin assay was used to determine the concentration (ng/mL) of purified recombinant Beta-lactamase (FIG. 25A). Cell viability was measured by CellTitre-Glo® luminescence in the presence of prodrug (glut-AMS or ceph-AMS) and varying concentrations of purified recombinant CPG2 or Beta-lactamase (FIG. 25B).

[2] = test system: HEK293T cells expressing CPG2; assay: HEK293T cells expressing CPG2 variants exposed to P-AMS; assay type: cell-based, human
Protocol: (§1) The in vitro cytotoxicity of AMS (structure 1c) and its prodrug variant (structure 1a) was tested against a variety of cell lines using a CellTitre Glo® assay (Promega, Madison, WI). […] Moreover, co-treatment with the prodrug and supernatant from CPG2-transfected HEK293T cells (see Example 3) led to cytotoxicity approaching that of the free drug (50 nM), consistent with CPG2-mediated cleavage of the prodrug to release the active parent drug. […] In contrast, AMS prodrug 1a was not activated by HEK293T cells expressing CPG intracellularly, which likely attributed to poor cell-penetrance of the prodrug due to the free bis-anionic gluatamate moiety.
Expression of CPG2 without a signal peptide (CPG2nosigp) was employed as a control. HEK293t cells stably transfected with CPG2 variants were exposed to P-AMS ([…]) for 48 hours and analyzed by bright field microscopy (FIG. 9A). Cells were exposed to varying concentrations of P-AMS and cell viability was analyzed at 48 hr post treatment (FIG. 9B).

Raji = assay: Cell viability, Raji; assay type: cell-based, human
[3] = mouse, in vivo
[4] = test system: panel of cancer cell lines and primary cell lines; assay: In vitro cytotoxicity of drug/prodrug pairs against a panel of cell lines; assay type: cell-based
[5] = test system: SKOV-3 human ovarian cancer cell line; assay: Cell viability, Skov-3; assay type: cell-based
[6] = test system: myeloid leukemia cell line SET2; assay: CellTitre Glo in vitro cytotoxicity, SET2; assay type: cell-based
primary T-cells = assay: CellTitre Glo in vitro cytotoxicity, primary T cells; assay type: cell-based, human
Jurkat T cells = assay: Jurkat viability with prodrug plus supernatant from CPG2-secreting HEK293T cells; assay type: cell-based, human; conditions: increasing prodrug, 48 hours, supernatant from CPG2-secreting HEK293T cells
Protocol: as §1
Jurkat T cells were exposed to increasing concentrations of AMS (circle) or Pro-AMS with media alone (triangle) or supernatant from CPG2-secreting HEK293T cells (square). Cell viability was measured at 48 hours by CellTitre-Glo® luminescence assay.
Jurkat T cells were exposed to increasing concentrations of ZD2767P with media alone (triangle) or supernatant from CPG2-secreting HEK293T cells (square). Cell viability was measured at 48 hours by CellTitre-Glo® luminescence assay.

HEK293T (kidney) = assay: CellTitre Glo in vitro cytotoxicity, HEK293T; assay type: cell-based, human
[7] = test system: human epithelial CACO-2 cells; assay: Cell permeability in CACO-2 cells; assay type: in vitro ADME
Nalm6 = assay: Cell viability, Nalm6; assay type: cell-based
recombinant CPG2 = biological target: T2, recombinant CPG2 (Pseudomonas sp., UniProt P06621, N222Q/N264Q/N272Q); assay: Glutamate release assay (Amplex Red) with recombinant CPG2; assay type: biochemical; conditions: high concentrations (~10 μM), 37° C.
T2 construct: 6xHis (pET151 Directional TOPO leader) (N); made in house; host or cells: E. coli BL21 star
Protocol: FIG. 4 provides exemplary data showing activation of P-AMS (see FIG. 2) by recombinant CPG2 expressed and purified from E. coli. (A) Human Jurkat T cells were incubated with or without P-AMS in the presence of increasing concentration of purified CPG2. Cell viability was measured at 48 hours by CellTitre-Glo luminescence. (B) Recombinant CPG2 was exposed to various concentrations of glutamated AMS prodrug. Following incubation at 37° C. (0.5, 1, 2, and 4 hr.), the reaction was combined with Amplex® Red (converts free glutamate to a fluorescent species) and fluorescent emission was analyzed using a fluorescence multiwell plate scanner.
The CPG2-pET151 vector was transformed into BL21 star E. coli cells and induced with IPTG. Bacteria were homogenized in a French Press and purified by affinity chromatography over Ni++ beads using standard protocols. Imidazole was exchanged via PBS dialysis and protein was purified via desalting spin columns. The expressed and purified CPG2 was assayed to confirm that the active enzyme was a potent converter of glutamated prodrugs. […] Pro-AMS was activated by recombinant CPG2 in vitro. Human Jurkat T cells were incubated with or without P-AMS in the presence of increasing concentration of purified CPG2. Cell viability of the Jurkat cells was measured at 48 hours by CellTitre-Glo® luminescence. […]

NS(=O)(=O)OC[C@H]1O[C@@H](n2cnc3c(NC(=O)N[C@@H](CCC(=O)O)C(=O)O)ncnc32)[C@H](O)[C@@H]1O [P-AMS, ((9-((2R,3R,4S,5R)-3,4-dihydroxy-5-((sulfamoyloxy)methyl)tetrahydrofuran-2-yl)-9H-purin-6-yl)carbamoyl)-L-glutamic acid]
stability to endogenous glutamate carboxypeptidase [1]: remained stable | pIC50 (Jurkat (T cell); Homo sapiens, Jurkat, read-out: IC50 (cell selectivity data)): < 5.90 | Selective Index (Jurkat (T cell); Jurkat (T cell), prodrug vs AMS): >162.3 | SET2 cell viability with prodrug and CPG2 supernatant (SET2 cells): significant decrease in cell viability | activation by cells expressing CPG intracellularly ([2]; HEK293T cells expressing CPG intracellularly): not activated | cell death of HEK293T cells stably expressing secreted or transmembrane CPG2 ([2]; P-AMS, 48 hr, CPG2nosigp control did not): significant cell death | pIC50 (Raji; Homo sapiens, read-out: IC50 (cell selectivity data)): < 5.52 | Selective Index (Raji; prodrug vs AMS): >170.5 | toxicity [3]: non-toxic | selective indices ([4]; all cell types tested): > 100 | pIC50 ([4]; prodrug alone, cell lines tested): < 6.00 | SI selectivity index ([4]; prodrug vs free drug, up to): > 56 | pIC50 ([5]; Homo sapiens, SK-OV-3, read-out: IC50 (cell selectivity data)): < 5.30 | Selective Index ([5]; Skov-3, prodrug vs AMS): >14.3 | pIC50 ([6]; Homo sapiens, SET-2, read-out: IC50 (cell selectivity data)): < 5.52 | Selective Index ([6]; Set2, prodrug vs AMS): >87.2 | pIC50 (primary T-cells; Homo sapiens, T-cell, read-out: IC50 (cell selectivity data)): < 5.52 | Selective Index (primary T-cells; Human T cell, prodrug vs AMS): >13.2 | cell viability with prodrug and CPG2 supernatant (Jurkat T cells): significant decrease in cell viability | Selective Index (HEK293T (kidney); HEK293t, prodrug vs AMS): >7.5 | pIC50 (HEK293T (kidney); Homo sapiens, HEK-293T, read-out: IC50 (cell selectivity data)): < 5.30 | cell permeability [7]: no cell permeability | pIC50 (Nalm6; Homo sapiens, NALM-6, read-out: IC50 (cell selectivity data)): < 5.52 | Selective Index (Nalm6; Nalm6, prodrug vs AMS): >81.3 | time in which the majority of the prodrug is converted (recombinant CPG2): ≤ 1 h
